Assay results taken from patent US20150065443A1, “EMBELIN-BASED DELIVERY SYSTEM FOR WATER-INSOLUBLE ACTIVE AGENTS” (priority 2012, published 2015).

System: MDA-MB-231 cells
Test: In vitro cytotoxicity, MTT assay
Details: various concentrations of PTX, 72 h

How did the Cytotoxicity turn out when `CC(=O)O[C@H]1C(=O)[C@@]2(C)[C@H]([C@H](OC(=O)c3ccccc3)[C@]3(O)C[C@H](OC(=O)[C@H](O)[C@@H](NC(=O)c4ccccc4)c4ccccc4)C(C)=C1C3(C)C)[C@]1(OC(C)=O)CO[C@@H]1C[C@@H]2O` [PTX, Paclitaxel] was run?
Its Cytotoxicity is “exhibited cytotoxicity on MDA-MB-231 cells in a dose-dependent manner”.
